From patent US20260083865A1, “PROSTATE SPECIFIC MEMBRANE ANTIGEN (PSMA) LIGANDS AND USE THEREOF” (priority 2022, published 2026)
Read-outs that look alike come from different tables or passages of the source. Numbered stars: 1 amine (or outer) side, 2 acyl side, 3 side chain; on linkers, the order of the positions; unused ones are H or OH. Bridge positions count the residues as written; N and C are the ends. Square brackets hold non-standard residues; d marks the D form. Peptide text beside a SMILES is read from it. * marks the point of attachment. TtdsdLys(DOTA)NH2 = NC(=O)[C@@H](CCCCNC(=O)CN1CCN(CC(=O)O)CCN(CC(=O)O)CCN(CC(=O)O)CC1)NC(=O)CCC(=O)NCCCOCCOCCOCCCN*; DOTA = O=C(O)CN1CCN(CC(=O)O)CCN(CC(=O)*)CCN(CC(=O)O)CC1; Phe(4-CH2COOH) = N[C@@H](Cc1ccc(CC(=O)O)cc1)C(=O)O; Trp(5-Br) = N[C@@H](Cc1c[nH]c2ccc(Br)cc12)C(=O)O; Phe(4-Cl) = N[C@@H](Cc1ccc(Cl)cc1)C(=O)O; Ethylenediamine = C(CN[*:2])N[*:1]; NMeF = CN[C@@H](Cc1ccccc1)C(=O)O; X1 = O=C(CC1CCN([*:1])CC1)[*:2]; Cit = NC(=O)NCCC[C@H](N)C(=O)O; NMeN = CN[C@@H](CC(N)=O)C(=O)O; Tle = CC(C)(C)[C@H](N)C(=O)O; 4Amb = NCc1ccc(C(=O)O)cc1; Nle = CCCC[C@H](N)C(=O)O; Hexanoyl = CCCCCC(=O)*; Aib = CC(C)(N)C(=O)O

Key:
[1] = target: T1, Fc-fusion protein of human PSMA (hPSMA-Fc) (Homo sapiens, UniProt Q04609); test: Surface plasmon resonance assay (Biacore T200, single cycle kinetic); type: binding; details: read-out: pKD CAT (converted)
T1 construct: purchased Acro Biosystems PSA-H5264
In short: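 hPSMA-Fc was captured (~1000 RU) on an Fc-binding-peptide CM5 chip, and compounds were run in single cycle kinetic mode at 25° C in HBST with 0.1% DMSO. Double-blank-corrected sensorgrams were fitted to a 1:1 Langmuir model to give KD, reported as pKD.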

[2] = target: T2, PSMA-expressing C4-2 cells (Homo sapiens, UniProt Q04609); test: FACS binding assay (competition with 50 nM PSM-0183); details: read-out: pIC50 [C4-2] CAT (converted)
T2 construct: PSMA-expressing C4-2 cells (ATCC, Cat. No. CRL-3314) were cultured in RPMI-1640; host or cells: C4-2 cells
In short: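 C4-2 cells were incubated 1 h at 4 °C with 50 nM AF488-labelled peptide PSM-0183 plus increasing test compound concentrations, then washed twice in ice-cold buffer. Median fluorescence in the AF488 channel was read by flow cytometry. IC50/pIC50 was derived by 4PL fitting of MFI versus concentration.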

[3] = SPR, hPSMA-Fc, single cycle kinetic, 25° C., category
[4] = FACS binding, C4-2 cells, competition with 50 nM PSM-0183, category
[5] = pKD category for PSMA SPR activity assay, hPSMA-Fc, 25° C.
[6] = pIC50 category of FACS binding, C4-2 cells
[7] = PSMA SPR assay, hPSMA-Fc, 25° C., pKD category
[8] = FACS binding, PSMA-expressing C4-2 cells, pIC50 category
[9] = FACS binding, C4-2 cells, category

T2 sequence (Q04609 whole entry): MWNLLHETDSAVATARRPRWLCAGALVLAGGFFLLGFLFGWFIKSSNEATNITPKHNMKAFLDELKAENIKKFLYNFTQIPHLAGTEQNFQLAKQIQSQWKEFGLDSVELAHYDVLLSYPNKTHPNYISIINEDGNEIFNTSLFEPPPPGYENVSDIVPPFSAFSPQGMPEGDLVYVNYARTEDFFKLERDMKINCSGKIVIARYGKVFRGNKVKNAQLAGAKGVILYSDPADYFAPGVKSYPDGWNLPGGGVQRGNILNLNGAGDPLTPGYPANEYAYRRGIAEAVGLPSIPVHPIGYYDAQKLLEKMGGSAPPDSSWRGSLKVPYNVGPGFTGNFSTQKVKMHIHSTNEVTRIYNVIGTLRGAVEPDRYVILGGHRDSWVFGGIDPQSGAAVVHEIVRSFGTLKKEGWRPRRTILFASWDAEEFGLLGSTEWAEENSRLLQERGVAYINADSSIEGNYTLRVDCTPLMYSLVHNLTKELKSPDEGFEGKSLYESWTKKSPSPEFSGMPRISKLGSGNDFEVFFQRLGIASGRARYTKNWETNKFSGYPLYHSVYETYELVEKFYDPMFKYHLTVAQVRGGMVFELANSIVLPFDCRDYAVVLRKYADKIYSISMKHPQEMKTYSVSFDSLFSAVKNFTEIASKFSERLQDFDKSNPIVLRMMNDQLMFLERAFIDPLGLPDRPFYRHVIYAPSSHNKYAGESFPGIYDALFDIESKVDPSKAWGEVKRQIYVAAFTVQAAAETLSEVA
T1 sequence (Q04609 44-750 limits assumed): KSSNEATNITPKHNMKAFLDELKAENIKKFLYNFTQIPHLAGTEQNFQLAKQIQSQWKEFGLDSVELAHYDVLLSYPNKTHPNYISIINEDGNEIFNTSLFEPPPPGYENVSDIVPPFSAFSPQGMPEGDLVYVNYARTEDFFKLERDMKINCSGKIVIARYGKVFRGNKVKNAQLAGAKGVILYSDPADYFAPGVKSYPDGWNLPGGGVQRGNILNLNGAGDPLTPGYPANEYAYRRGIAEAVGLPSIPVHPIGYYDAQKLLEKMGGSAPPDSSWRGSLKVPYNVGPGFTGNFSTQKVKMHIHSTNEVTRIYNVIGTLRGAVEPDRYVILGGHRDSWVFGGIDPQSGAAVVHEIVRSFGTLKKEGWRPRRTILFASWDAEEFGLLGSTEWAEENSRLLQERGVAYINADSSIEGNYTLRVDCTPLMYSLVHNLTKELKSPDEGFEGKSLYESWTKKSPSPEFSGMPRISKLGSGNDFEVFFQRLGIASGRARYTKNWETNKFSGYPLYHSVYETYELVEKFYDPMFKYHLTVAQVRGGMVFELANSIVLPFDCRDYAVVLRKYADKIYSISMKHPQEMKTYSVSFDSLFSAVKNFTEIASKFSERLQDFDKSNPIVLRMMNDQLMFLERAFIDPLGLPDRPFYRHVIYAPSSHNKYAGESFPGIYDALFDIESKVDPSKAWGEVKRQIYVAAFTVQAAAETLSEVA

Structure (SMILES): C[C@@H](O)[C@H](NC(=O)[C@@H](NC(=O)[C@@H]1CSSC[C@H](NC(=O)[C@H](Cc2ccc(Cl)cc2)NC(=O)C(C)(C)NC(=O)[C@@H](NC(=O)CC2CCN(C(=O)CN3CCN(CC(=O)O)CCN(CC(=O)O)CCN(CC(=O)O)CC3)CC2)[C@@H](C)O)C(=O)N[C@@H](CCCCN)C(=O)N[C@@H](CCCNC(=N)N)C(=O)N[C@H](CCC(=O)O)C(=O)N[C@@H](CC(N)=O)C(=O)N1)C(C)(C)C)C(N)=O [PSM-0260, DOTA-Cmp-Thr-Aib-Pcf-[Cys-Lys-Arg-glu-Asn-Cys]-Tle-Thr-NH2] ({DOTA}-[X1]T[Aib][Phe(4-Cl)]CKR[dE]NC[Tle]T-NH2; disulfide 5-10)
- Kd [1, 3]: < 0.0126 µM
- IC50 [2, 4]: < 0.2 µM

Structure (SMILES): CC(C)(NC(=O)c1ccc(CNC(=O)CN2CCN(CC(=O)O)CCN(CC(=O)O)CCN(CC(=O)O)CC2)cc1)C(=O)N[C@@H](Cc1ccccc1)C(=O)N[C@H]1CSSC[C@@H](C(=O)N[C@H](C(=O)NCCN)C(C)(C)C)NC(=O)[C@H](CC(N)=O)NC(=O)C(C)(C)NC(=O)[C@H](CCCNC(=N)N)NC(=O)[C@H](CCCCN)NC1=O [PSM-0221, DOTA-Pamb-Aib-Phe-[Cys-Lys-Arg-Aib-Asn-Cys]-Tle-en] ({DOTA-4Amb}-[Aib]FCKR[Aib]NC[Tle]-Ethylenediamine; disulfide 3-8)
- Kd [1, 3]: < 0.0126 µM
- IC50 [2, 4]: < 0.2 µM

Structure (SMILES): CCCCCC(=O)N[C@H](C(=O)NC(C)(C)C(=O)N[C@@H](Cc1ccccc1)C(=O)N[C@H]1CSSC[C@@H](C(=O)N[C@H](C(=O)N[C@H](C(=O)N[C@@H](CC(=O)O)C(=O)NCCCOCCOCCOCCCNC(=O)CCC(=O)N[C@H](CCCCNC(=O)CN2CCN(CC(=O)O)CCN(CC(=O)O)CCN(CC(=O)O)CC2)C(N)=O)[C@@H](C)O)C(C)(C)C)NC(=O)[C@H](CC(N)=O)NC(=O)[C@H](C)NC(=O)[C@H](CCCNC(=N)N)NC(=O)[C@H](CCCCN)NC1=O)[C@@H](C)O [PSM-0502, Hex-Thr-Aib-Phe-[Cys-Lys-Arg-Ala-Asn-Cys]-Tle-Thr-Asp-Ttds-lys(DOTA)-NH2] (Hexanoyl-T[Aib]FCKRANC[Tle]TD-{TtdsdLys(DOTA)NH2}; disulfide 4-9)
- Kd [1, 5]: < 0.0126 µM
- IC50 [2, 6]: < 0.2 µM

Structure (SMILES): CC(=O)N[C@H](C(=O)N[C@@H](C)C(=O)N(C)[C@@H](Cc1ccccc1)C(=O)N[C@H]1CSSC[C@@H](C(=O)N[C@H](C(=O)N[C@H](C(N)=O)[C@@H](C)O)C(C)(C)C)NC(=O)[C@H](CC(N)=O)NC(=O)C(C)(C)NC(=O)[C@H](CCCNC(=N)N)NC(=O)[C@H](CCCCN)NC1=O)[C@@H](C)O [PSM-0319, Ac-Thr-Ala-Nmf-[Cys-Lys-Arg-Aib-Asn-Cys]-Tle-Thr-NH2] (Ac-TA[NMeF]CKR[Aib]NC[Tle]T-NH2; disulfide 4-9)
- Kd [1, 7]: 0.0126 to 0.126 µM
- IC50 [2, 8]: < 0.2 µM

Structure (SMILES): CC(=O)N[C@H](C(=O)NC(C)(C)C(=O)N[C@@H](Cc1ccccc1)C(=O)N[C@H]1CSSC[C@@H](C(=O)N[C@H](C(N)=O)C(C)(C)C)NC(=O)[C@H](CC(N)=O)NC(=O)C(C)(C)NC(=O)[C@H](CCCNC(=N)N)NC(=O)[C@H](CCCCN)NC1=O)[C@@H](C)O [PSM-0230, Ac-Thr-Aib-Phe-[Cys-Lys-Arg-Aib-Asn-Cys]-Tle-NH2] (Ac-T[Aib]FCKR[Aib]NC[Tle]-NH2; disulfide 4-9)
- Kd [1, 3]: < 0.0126 µM
- IC50 [2, 4]: < 0.2 µM

Structure (SMILES): C[C@@H](O)[C@H](NC(=O)[C@@H](NC(=O)[C@@H]1CSSC[C@H](NC(=O)[C@H](Cc2c[nH]c3ccc(Br)cc23)NC(=O)C(C)(C)NC(=O)[C@@H](NC(=O)CC2CCN(C(=O)CN3CCN(CC(=O)O)CCN(CC(=O)O)CCN(CC(=O)O)CC3)CC2)[C@@H](C)O)C(=O)N[C@@H](CCCCN)C(=O)N[C@@H](CCCNC(N)=O)C(=O)NC(C)(C)C(=O)N[C@@H](CC(N)=O)C(=O)N1)C(C)(C)C)C(N)=O [PSM-0359, DOTA-Cmp-Thr-Aib-5Brw-[Cys-Lys-Cit-Aib-Asn-Cys]-Tle-Thr-NH2] ({DOTA}-[X1]T[Aib][Trp(5-Br)]CK[Cit][Aib]NC[Tle]T-NH2; disulfide 5-10)
- Kd [1, 7]: > 0.501 µM
- IC50 [2, 8]: > 3.16 µM

Structure (SMILES): C[C@@H]1NC(=O)[C@H](CCCNC(=N)N)NC(=O)[C@H](CCCCN)NC(=O)[C@@H](NC(=O)[C@H](Cc2ccc(Cl)cc2)NC(=O)C(C)(C)NC(=O)[C@@H](NC(=O)CC2CCN(C(=O)CN3CCN(CC(=O)O)CCN(CC(=O)O)CCN(CC(=O)O)CC3)CC2)[C@@H](C)O)CSSC[C@@H](C(=O)N[C@H](C(=O)N[C@H](C(N)=O)[C@@H](C)O)C(C)(C)C)NC(=O)[C@H](CC(N)=O)N(C)C1=O [PSM-0585, DOTA-Cmp-Thr-Aib-Pcf-[Cys-Lys-Arg-Ala-Nmn-Cys]-Tle-Thr-NH2] ({DOTA}-[X1]T[Aib][Phe(4-Cl)]CKRA[NMeN]C[Tle]T-NH2; disulfide 5-10)
- Kd ([1]; PSMA SPR assay, category): 0.0126 to 0.126 µM
- IC50 [2, 9]: < 0.2 µM

Structure (SMILES): CCCC[C@H](NC(=O)[C@@H]1CSSC[C@H](NC(=O)[C@H](Cc2ccccc2)NC(=O)[C@H](C)NC(=O)[C@@H](NC(C)=O)[C@@H](C)O)C(=O)N2CCC[C@H]2C(=O)N[C@@H](CCCNC(=N)N)C(=O)N[C@@H](C)C(=O)N[C@@H](CC(N)=O)C(=O)N1)C(=O)N[C@H](C(=O)N[C@@H](CC(=O)O)C(N)=O)[C@@H](C)O [PSM-0544, Ac-Thr-Als-Phe-[Cys-Pro-Arg-Ala-Asn-Cys]-Nle-Thr-Asp-NH2] (Ac-TAFCPRANC[Nle]TD-NH2; disulfide 4-9)
- Kd [1, 5]: > 0.501 µM
- IC50 [2, 6]: > 3.16 µM

Structure (SMILES): CC(=O)N[C@H](C(=O)NC(C)(C)C(=O)N[C@@H](Cc1ccccc1)C(=O)N[C@H]1CSSC[C@@H](C(=O)N[C@H](C(=O)N[C@H](C(=O)N[C@@H](CC(=O)O)C(=O)NCCCOCCOCCOCCCNC(=O)CCC(=O)N[C@H](CCCCNC(=O)CN2CCN(CC(=O)O)CCN(CC(=O)O)CCN(CC(=O)O)CC2)C(N)=O)[C@@H](C)O)C(C)(C)C)NC(=O)[C@H](CC(N)=O)NC(=O)C(C)(C)NC(=O)[C@H](CCCNC(=N)N)NC(=O)[C@H](CCCCN)NC1=O)[C@@H](C)O [PSM-0212, Ac-Thr-Aib-Phe-[Cys-Lys-Arg-Aib-Asn-Cys]-Tle-Thr-Asp-Ttds-lys(DOTA)-NH2] (Ac-T[Aib]FCKR[Aib]NC[Tle]TD-{TtdsdLys(DOTA)NH2}; disulfide 4-9)
- Kd [1, 3]: < 0.0126 µM
- IC50 [2, 4]: < 0.2 µM

Structure (SMILES): C[C@@H](O)[C@H](NC(=O)[C@@H](NC(=O)[C@@H]1CSSC[C@H](NC(=O)[C@H](Cc2ccc(CC(=O)O)cc2)NC(=O)C(C)(C)NC(=O)[C@@H](NC(=O)CC2CCN(C(=O)CN3CCN(CC(=O)O)CCN(CC(=O)O)CCN(CC(=O)O)CC3)CC2)[C@@H](C)O)C(=O)N[C@@H](CCCCN)C(=O)N[C@@H](CCCNC(=N)N)C(=O)NC(C)(C)C(=O)N[C@@H](CC(N)=O)C(=O)N1)C(C)(C)C)C(N)=O [PSM-0566, DOTA-Cmp-Thr-Aib-Fac-[Cys-Lys-Arg-Aib-Asn-Cys]-Tle-Thr-NH2] ({DOTA}-[X1]T[Aib][Phe(4-CH2COOH)]CKR[Aib]NC[Tle]T-NH2; disulfide 5-10)
- Kd ([1]; PSMA SPR assay, category): > 0.501 µM
- IC50 [2, 9]: > 3.16 µM

Structure (SMILES): CCCC[C@H](NC(=O)[C@@H]1CSSC[C@H](NC(=O)[C@H](Cc2ccccc2)NC(=O)[C@H](C)NC(=O)[C@H](NC(C)=O)[C@H](C)O)C(=O)N[C@@H](CCCCN)C(=O)N[C@@H](CCCNC(=N)N)C(=O)N[C@@H](C)C(=O)N[C@@H](CC(N)=O)C(=O)N1)C(=O)N[C@H](C(=O)N[C@@H](CC(=O)O)C(N)=O)[C@@H](C)O [PSM-0525, Ac-thr-Als-Phe-[Cys-Lys-Arg-Als-Asn-Cys]-Nle-Thr-Asp-NH2]
- Kd [1, 5]: > 0.501 µM
- IC50 [2, 6]: > 3.16 µM
